From patent publication US6670339B1, “Use of sulfated oligosaccharides in lowering blood triglyceride levels” (The Australian National University, priority 1997, dated 2003)
Like-named read-outs stand apart in the source and are kept apart here.

Tests used:
[1] = target: T1, bovine milk lipoprotein lipase (Bos taurus, UniProt P11151); experiment: Inhibition of binding of biotinylated heparin/heparan sulfate to immobilised lipoprotein lipase; details: for inhibitory activity on lipoprotein lipase binding to heparin/heparan sulfate, in words: summary of Table 1
T1 construct: purified from bovine milk as previously described; from tissue; host or cells: bovine milk
T1 sequence (P11151 29-478): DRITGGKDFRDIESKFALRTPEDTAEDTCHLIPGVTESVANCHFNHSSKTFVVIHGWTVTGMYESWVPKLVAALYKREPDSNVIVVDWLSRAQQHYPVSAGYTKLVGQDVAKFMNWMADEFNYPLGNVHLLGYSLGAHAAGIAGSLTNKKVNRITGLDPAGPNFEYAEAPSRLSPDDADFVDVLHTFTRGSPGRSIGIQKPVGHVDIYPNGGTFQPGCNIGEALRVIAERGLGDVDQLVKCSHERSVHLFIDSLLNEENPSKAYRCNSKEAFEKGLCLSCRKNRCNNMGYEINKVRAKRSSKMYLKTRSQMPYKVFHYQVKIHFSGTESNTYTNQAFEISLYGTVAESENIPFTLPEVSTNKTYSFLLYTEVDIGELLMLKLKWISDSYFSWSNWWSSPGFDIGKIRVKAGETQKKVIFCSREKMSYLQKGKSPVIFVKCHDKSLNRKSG
Procedure: As a more rapid and direct means of measuring the ability of different sulfated oligosaccharides to release lipoprotein lipase from the endothelium, an in vitro assay for this effect was developed. The assay involved immobilising lipoprotein lipase (10 μg/ml in PBS, 15 hr, 4° C.), purified from bovine milk as previously described^12, in 96 well plastic microplates (50 μl/well). Non-specific binding sites were then blocked by the addition of 200 μl/well of PBS containing 1% (w/v) bovine serum albumin (BSA) for 2 hr at 4° C. Following three washes with 200 μl/well of PBS/0.05% Tween 20 (PBST), 50 μl/well of either biotinylated bovine lung heparin or biotinylated porcine mucosal heparan sulfate (Sigma), used at either 1 or 10 μg/ml, was added and incubated for 2 hr at 4° C. Following three washes with PBST, 50 μl/well of europeum-streptavidin (1 ng/ml in PBS/1% BSA) was added for 1 hr at 4° C., the plate again washed three times with PBST, enhancement solution (50 μl/well) added and bound europeum measured by time resolved fluorescence detection using a Delfia Research Fluorometer (Wallac, Turku, Finland). Inhibition assays measured the ability of different sulfated oligosacchandes to inhibit the binding of biotinylated heparan/heparin sulfate to the immobilised lipoprotein lipase enzyme.

[2] = tested on: serum triglyceride levels; experiment: Serum triglyceride lowering by glycosaminoglycans and sulfated oligosaccharides in mice; type: in vivo, CBA/h female mice; details: 50 mg/kg s.c., 2 hours after injection
Procedure: FIG. 3. Ability of different glycosaminoglycans and sulfated oligosaccharides to lower serum triglyceride levels in CBA mice. Compounds were injected s.c. at a dose of 50 mg/kg, blood samples taken 2 hours later and assayed for triglyceride content. Each histogram is the mean±SEM (n=3) for each treatment.
Mice (CBA/h female mice 8-10 weeks old) were injected s.c. with a range of glycosaminoglycans and sulfated oligosaccharides at a dose of 50 mg/kg and 2 hours later mice were anaesthetised, blood was collected via cardiac puncture and allowed to clot and serum triglyceride levels measured using a commercially available kit (Sigma, Triglyceride—GPO-Trinder). […] The only other compound with some activity was suramin, a sulfonated compound which has previously been used as an angiogenesis and heparanase inhibitor.

[3] = biotinylated bovine lung heparin 1 μg/ml
[4] = biotinylated bovine lung heparin 10 μg/ml

Compound	IC50, inhibition of binding of Biotinylated Heparin (1 μg/ml) to lipoprotein lipase [1, 3] [µg/mL]	inhibitory activity on lipoprotein lipase binding to heparin/heparan sulfate, in words [1]	IC50 ([1]; biotinylated bovine lung heparin 1 μg/ml, read-out: IC50, inhibition of binding of Biotinylated Heparin (1 μg/ml) to lipoprotein lipase) [µM]	IC50 ([1]; biotinylated bovine lung heparin 10 μg/ml, read-out: IC50, inhibition of binding of Biotinylated Heparin (10 μg/ml) to lipoprotein lipase) [µM]	IC50, inhibition of binding of Biotinylated Heparin (10 μg/ml) to lipoprotein lipase [1, 4] [µg/mL]	effect on serum triglyceride levels, in words [2]
O=S(=O)(O)OC[C@H]1O[C@@](COS(=O)(=O)O)(O[C@H]2O[C@H](COS(=O)(=O)O)[C@@H](OS(=O)(=O)O)[C@H](OS(=O)(=O)O)[C@H]2OS(=O)(=O)O)[C@@H](OS(=O)(=O)O)[C@@H]1OS(=O)(=O)O [Sucrose octasulfate, reference compound]	>200	lacked activity	–	–	–	small but significant enhancement
Cc1ccc(C(=O)Nc2ccc(S(=O)(=O)O)c3cc(S(=O)(=O)O)cc(S(=O)(=O)O)c23)cc1NC(=O)c1cccc(NC(=O)Nc2cccc(C(=O)Nc3cc(C(=O)Nc4ccc(S(=O)(=O)O)c5cc(S(=O)(=O)O)cc(S(=O)(=O)O)c45)ccc3C)c2)c1 [Suramin, reference compound]	–	lacked activity	> 77.1	> 77.1	–	some activity
Cellohexaose	–	exhibited activity	–	–	12	–

More lines, main results first:

IC50, inhibition of binding of Biotinylated Heparin (1 μg/ml) to lipoprotein lipase [1, 3] [µg/mL]	inhibitory activity on lipoprotein lipase binding to heparin/heparan sulfate, in words [1]	IC50 ([1]; biotinylated bovine lung heparin 1 μg/ml, read-out: IC50, inhibition of binding of Biotinylated Heparin (1 μg/ml) to lipoprotein lipase) [µM]	IC50 ([1]; biotinylated bovine lung heparin 10 μg/ml, read-out: IC50, inhibition of binding of Biotinylated Heparin (10 μg/ml) to lipoprotein lipase) [µM]	IC50, inhibition of binding of Biotinylated Heparin (10 μg/ml) to lipoprotein lipase [1, 4] [µg/mL]	Compound	effect on serum triglyceride levels, in words [2]
3	inhibitory	–	–	12	maltoheptaose sulfate [Maltoheptaose SO4]	significantly lowered triglyceride levels
3	potent inhibitors	–	–	6	maltohexaose sulfate [Maltohexaose SO4]	significantly lowered triglyceride levels
